Measured values as given in patent US20050175535A1 (CV Therapeutics, Inc., priority 2000, published 2005).
Where two headings read alike, the source gives them in different places.

What was measured:
[1] = system: rat isolated perfused heart; assay: Reversal time of coronary vasodilation in rat isolated perfused hearts; settings: bolus, rat isolated perfused heart;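 further: each agonist bolused at its minimal concentration giving equal maximal coronary conductance rise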
Method: FIG. 10. Reversal of effect of agonist stimulation on CC. […] CC was measured at 8, 16 and 24 minutes after administration (FIG. 10A). […] R and N are the correlation coefficient and number of agonists, respectively.
The relationship between the affinity of agonists for the A2A receptor and the rate of reversal of agonist-mediated responses (coronary vasodilation in heart and cAMP accumulation in PC12 cells) upon termination of drug administration were determined. […] The duration of the coronary vasodilation in isolated rat hearts caused by adenosine, the CVT compounds, and other agonists measured as the time to 50% and 90% (t0.5 and t0.9, respectively) reversal of the increases in coronary conductance after termination of drug administration are summarized in Table 4.

A2A adenosine receptors = A2A adenosine receptors (Sus scrofa, UniProt K9IW67); assay: Competitive radioligand binding, [3H]ZM241385, pig striatum membranes; settings: [3H]ZM241385, Gpp(NH)p present
Method: Membranes were also obtained from porcine striatial cells as follows. […] The homogenate was filtered through cotton gauze and centrifuged at 48,000g for 15 minutes at 4° C. […] The final pellet was frozen at −80° C. until used for receptor binding assays.

[2] = Coronary blood flow and reversal time, intracoronary infusion in open-chest anesthetized pigs; format: in vivo
Method: The magnitude of the effect of A2A adenosine receptor agonists on coronary dilation and the duration of the effect was determined in pigs weighing 22-27 kg. […] In addition, animals were used in accordance with the guidelines of the University of Kentucky Institutional Animal Care and Use Protocol.
Anesthesia was maintained with additional sodium pentobarbital (1.5-2 mg/kg, i.v.) every 15-20 minutes. Animals were ventilated via a tracheotomy tube using a mixture of room air and 100% O2. Tidal volume, respiratory rate and fraction of O2 in inspired air were adjusted to maintain arterial blood gas (ABG) and pH values. […] Lactate Ringers solution was administered via an ear or femoral vein as an initial bolus of 300-400 ml followed by a continuous infusion at a rate of 5-7 ml/kg/hr. A catheter was inserted into the femoral artery to monitor arterial blood pressure.
The heart was exposed through a median sternotomy and suspended in a pericardial cradle. Left ventricular pressure (LVP) was measured with a 5F high fidelity pressure sensitive tip transducer (Millar Instruments, Houston, Tex.) placed in the left ventricular cavity via an apical incision and secured with a purse string suture. A segment of the left anterior descending coronary artery (LAD), proximal to the origin of the first diagonal branch, was dissected free of surrounding tissue. A transit time perivascular flow probe (Transonic Systems Inc., Ithaca, N.Y.) was placed around this segment to measure CBF. Proximal to the flow probe, a 24-gauge modified angiocatheter was inserted for intracoronary infusions. […] The A2A adenosine receptors agonists were administered intracoronary.
Relationship between affinity of various agonists for A2A adenosine receptor and the reversal time of their effect to increase coronary conductance was determined in pigs. Each experiment was preceded by a 30-minute stabilization period following the completion of all instrumentation of the animal. Baseline hemodynamic data were then recorded and an intracoronary infusion of an A2A Adenosine receptors agonist was initiated. Each infusion was maintained for 4-5 minutes to allow LAD CBF to reach a steady-state, after which the infusion was terminated. The times to recovery of CBF by 50% (t0.5) and 90% (t0.9) of the difference from peak effect to baseline CBF were recorded. Ten to 15 minutes after CBF returned to pre-drug values a second infusion with a different agonist was started. […] Hemodynamic measurements were made prior to and following the initiation of the phenylephrine infusion. The phenylephrine infusion rate was adjusted during and following the infusions of the adenosine receptor agonists to maintain arterial blood pressure within 5 mmHg of pre-infusion values. The effect of a maximum of three different agonists was determined in each experiment.

[3] = molecular target: T1, human A1 adenosine receptors (Homo sapiens, UniProt P30542); assay: Competitive radioligand binding, [3H]CPX, CHO-hA1AdoR membranes; settings: in words
T1 construct: expressed in transfected cells
T1 sequence (P30542 1-326): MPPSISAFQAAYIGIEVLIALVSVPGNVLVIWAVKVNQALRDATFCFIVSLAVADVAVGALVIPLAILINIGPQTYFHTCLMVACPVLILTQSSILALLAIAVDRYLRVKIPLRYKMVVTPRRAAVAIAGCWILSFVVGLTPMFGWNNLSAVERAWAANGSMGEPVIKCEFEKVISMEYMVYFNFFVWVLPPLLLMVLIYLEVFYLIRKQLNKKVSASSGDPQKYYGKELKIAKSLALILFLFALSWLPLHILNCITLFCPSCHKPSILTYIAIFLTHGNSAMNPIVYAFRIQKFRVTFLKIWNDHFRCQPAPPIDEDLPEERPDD
Method: The cell suspensions were homogenized and centrifuged at 48,000g for 15 minutes. The pellets were washed three times by re-suspension in ice-cold Tris-HCl buffer and centrifugation. The final pellet was re-suspended in Tris-HCl, aliquoted and frozen at −80° C. until used for receptor binding assays.

[4] = system: rat isolated perfused heart; assay: Coronary conductance / coronary perfusion pressure in isolated perfused rat hearts; settings: for EC50: Rattus norvegicus
Method: Briefly, rats of either sex weighing 230-260 grams were anesthetized by intraperitoneal injection of a mixture of ketamine (100 mg/ml) and xylazine (20 mg/ml). The chest of each rat was opened and the heart removed, and rinsed in ice-cold modified Krebs-Henseleit (K-H) solution containing NaCl 117.9, KCl 4.5, CaCl2 2.5, MgSO4 1.18, KH2PO4 1.18, pyruvate 2.0 mmo/L. The aorta was cannulated and the heart was perfused at a flow rate of 10 ml/min with modified K-H solution. The K-H solution (pH 7.4) was gassed continuously with 95% O2 and 5% CO2 and warmed to 35±0.5° C. The heart was electrically paced at a fixed cycle length of 240 ms (250 beats/min) using a bipolar electrode placed in the left atrium. The electrical stimuli were generated by a Grass stimulator (Model S48, W. Warwick, R.I.) and delivered through a Stimuli Isolation Unit (Model SIU5, Astro-Med, Inc., NY) as square-wave pulses of 3-msec in duration and with an amplitude of at least twice the threshold intensity.
The identity of the adenosine receptor subtype (A1 or A2A) mediating the coronary vasodilation was determined.
Coronary perfusion pressure (CPP) was measured using a pressure transducer that was connected to the aortic cannula via a T-connector positioned approximately 3 cm above the heart. CPP was monitored throughout an experiment and recorded either on a chart recorder (Gould Recorder 2200S, Valley View, Ohio) or a computerized recording system (PowerLab/4S, ADInstruments Pty Ltd, Australia). Only hearts with CPP ranging from 60 to 85 mmHg (in the absence of drugs) were used in the study. CC conductance (in ml/min/mmHg) was calculated as the ratio between coronary perfusion rate (10 ml/min) and CPP.

[5] = read-out: Ki, Pig Strialum (A2A)
[6] = read-out: pKi ± SEM, Pig Strialum (A2A) (converted)

Sequence of A2A adenosine receptors (K9IW67 1-409): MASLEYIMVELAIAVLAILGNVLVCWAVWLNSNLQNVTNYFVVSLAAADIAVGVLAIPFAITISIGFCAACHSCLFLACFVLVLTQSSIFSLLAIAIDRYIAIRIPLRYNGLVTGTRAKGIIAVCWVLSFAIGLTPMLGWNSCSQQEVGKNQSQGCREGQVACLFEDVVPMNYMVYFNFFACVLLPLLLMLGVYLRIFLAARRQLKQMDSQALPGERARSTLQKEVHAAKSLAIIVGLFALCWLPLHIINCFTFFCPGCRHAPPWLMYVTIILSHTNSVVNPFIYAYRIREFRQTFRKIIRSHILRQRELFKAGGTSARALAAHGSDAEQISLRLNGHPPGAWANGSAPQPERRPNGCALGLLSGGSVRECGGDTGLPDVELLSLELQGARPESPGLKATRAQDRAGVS

Structure (SMILES) | Ki (A2A adenosine receptors; [5]) | t0.5, time to 50% reversal of the increase in coronary conductance [1] | t0.9, time to 90% reversal of the increase in coronary conductance [1] | other results
Cc1ccc(-c2cnn(-c3nc(N)c4ncn([C@@H]5O[C@H](CO)[C@@H](O)[C@H]5O)c4n3)c2)cc1 | 502 nM | 13.6 ± 1.3 min | 18.9 ± 1.9 min | Ki (A2A adenosine receptors; [6]): 490 nM
CCNC(=O)[C@H]1O[C@@H](n2cnc3c(N)nc(NCCc4ccc(CCC(=O)O)cc4)nc32)[C@H](O)[C@@H]1O [CGS21680, 2-p-(2-carboxy-ethyl) phenethyl-amino-5′-N-ethylcarboxamido-adenosine, reference compound] | – | – | – | t0.5 reversal of increase in coronary blood flow ([2]; 2 ug/kg/min intracoronary): 9.7 ± 0.8 min; t0.9 reversal of increase in coronary blood flow ([2]; 2 ug/kg/min intracoronary): 21.4 ± 0.8 min; affinity for the A1 receptor expressed by CHO-K1 cells [3]: relatively low affinities; decrease in coronary perfusion pressure ([4]; 100 nM, isolated rat heart): 23 mmHg; EC50 ([4]; read-out: EC50, Coronary Conductance (Rat Isolated Heart)): 0.54 nM; EC50 ([4]; read-out: pEC50 ± SEM, Coronary Conductance (Rat Isolated Heart) (converted)): 0.537 nM; effect on coronary conductance ([4]; isolated rat hearts, in words): concentration-dependent increases in coronary conductance
Nc1nc(C#CCOc2ccccc2Cc2ccccc2)nc2c1ncn2[C@@H]1O[C@H](CO)[C@@H](O)[C@H]1O [CVT-3006, (4S,2R,3R,5R)-2-(6-amino-2-{3-[2-benzylphenoxy]prop-1-ynyl}purin-9-yl)-5-(hydroxymethyl)oxolane-3,4-diol] | 64 nM | 16.1 ± 0.1 min | 21.8 ± 2.0 min | Ki (A2A adenosine receptors; [6]): 57.5 nM
N#Cc1ccc(OCC#Cc2nc(N)c3ncn([C@@H]4O[C@H](CO)[C@@H](O)[C@H]4O)c3n2)cc1 [CVT-3101, 4-(3-{9-[(4S,2R,3R,5R)-3,4-dihydroxy-5-(hydroxymethyl)oxolan-2-yl]-6-aminopurin-2-yl}prop-2-ynyloxy)benzenecarbonitrile] | 94 nM | 16.7 ± 0.5 min | 25.6 ± 0.3 min | –
Nc1nc(-n2cc(-c3ccc(Cl)cc3)cn2)nc2c1ncn2[C@@H]1O[C@H](CO)[C@@H](O)[C@H]1O [CVT-3141, (4S,2R,3R,5R)-2-{6-amino-2-[4-(4-chlorophenyl)pyrazole]purin-9-yl}-5-(hydroxymethyl)oxolane-3,4-diol] | – | 14.4 ± 1.9 min | 21.3 ± 3.9 min | –
C[C@H](Cc1ccccc1)Nc1ncnc2c1ncn2[C@@H]1O[C@H](CO)[C@@H](O)[C@H]1O [R-PIA, Phenylisopropyladenosine, reference compound] | 1110 nM | – | – | pKi ± SEM, Pig Strialum (A2A) (A2A adenosine receptors): 5.96 ± 0.06
CCCCCCC#Cc1nc(N)c2ncn([C@@H]3O[C@H](CO)[C@@H](O)[C@H]3O)c2n1 [YT-146, reference compound] | 16.3 nM | 17.7 ± 1.0 min | 25.8 ± 4.0 min | CBF (fold-increase) ([2]; 1 ug/kg/min intracoronary): 3.44 ± 0.47 fold; t0.5 reversal of increase in coronary blood flow ([2]; 1 ug/kg/min intracoronary): 17.8 ± 3.4 min; t0.9 reversal of increase in coronary blood flow ([2]; 1 ug/kg/min intracoronary): 32.9 ± 5.6 min; pKi ± SEM, Pig Strialum (A2A) (A2A adenosine receptors): 7.86 ± 0.33

The next lines start with results.

Ki (A2A adenosine receptors; [5]) | Structure (SMILES) | t0.5, time to 50% reversal of the increase in coronary conductance [1] | t0.9, time to 90% reversal of the increase in coronary conductance [1] | other results
1010 nM | Nc1nc(-c2cccs2)nc2c1ncn2[C@@H]1O[C@H](CO)[C@@H](O)[C@H]1O [CVT-3003, (4S,2R,3R,5R)-2-(6-amino-2-(2-thienyl)pruin-9-yl)-5-(hydroxymethyl)oxolane-3,4-diol] | 3.4 ± 0.1 min | 9.2 ± 2.2 min | –
697 nM | Cc1ccc(-c2nc(N)c3ncn([C@@H]4O[C@H](CO)[C@@H](O)[C@H]4O)c3n2)s1 [CVT-3100] | 5.1 ± 0.6 min | 10.1 ± 0.2 min | –
1670 nM | Nc1nc(-c2cnn(CCCc3ccccc3)c2)nc2c1ncn2[C@@H]1O[C@H](CO)[C@@H](O)[C@H]1O [CVT-3126, (4S,2R,3R,5R)-2-{6-amino-2-[1-(3-phenylpropyl)pyrazol-4-yl]purin-9-yl}-5-(hydroxymethyl)oxolane-3,4-diol] | 8.3 ± 0.4 min | 12.6 ± 0.3 min | –
64 nM | CCOC(=O)c1cnn(-c2nc(N)c3ncn([C@@H]4O[C@H](CO)[C@@H](O)[C@H]4O)c3n2)c1 [CVT-3127, ethyl 1-{9-[(4S,2R,3R,5R)-3,4-dihydroxy-5-(hydromethyl)oxolan-2-yl]-6-aminopurin-2-yl}pyrazole-4-carboxylate] | 14.8 ± 2.1 min | 15.0 ± 0.8 min | Ki (A2A adenosine receptors; [6]): 60.3 nM
7.96 nM | CCCCC#Cc1nc(N)c2ncn([C@@H]3O[C@H](C(=O)NCC)[C@@H](O)[C@H]3O)c2n1 [HENECA, 2-hexynyladenosine-5′-N-ethyl-, reference compound] | 28.6 ± 1.1 min | 32.8 ± 3.1 min | pKi ± SEM, Pig Strialum (A2A) (A2A adenosine receptors): 8.10 ± 0.08
